Source: patent US9675075B2, “Pest control composition” (MEIJI SEIKA PHARMA CO., LTD., priority 2007, dated 2017)

Columns and labels:
Format in all cases: in vivo
[1] = test system: Aphis gossypii; experiment: Test Example 1: pesticidal effect against Aphis gossypii (Part 1), cucumber leaf disk, death rate of first-instar larvae and Colby theoretical value; conditions: other insecticide 0.078 ppm alone (compound 261 0 ppm); for Theoretical value calculated by Colby's formula: Table 19; for Death rate of Aphis gossypii by single active ingredient or admixture: cucumber leaf disk, first-instar larvae, 3 days
Text: (§1) A leaf disk having a diameter of 2.0 cmφ was cut out from a cucumber grown in a pot and was placed in a 5.0 cm-Schale. Test admixture solutions, prepared by diluting the composition of the present invention with a 50% aqueous acetone solution (0.05% Tween 20 added) to predetermined concentrations specified in Table 18, test single active ingredient solutions in which only compound 261 had been dissolved without mixing other insecticides, or test single active ingredient solutions in which only other insecticides had been dissolved without mixing any pyripyropene derivative were spread over the cucumber leaf disk. The leaf disk was then air dried. Ten larvae at the first instar born of Aphis gossypii were released in the Schale. Thereafter, the Schale was lidded and was allowed to stand in a humidistat chamber (light period 16 hr-dark period 8 hr) (25° C.). […] Death rate (%)={number of dead larvae/(number of survived larvae+number of dead larvae)}×100
(§2) Colby's formula: Theoretical value (%)=100−(A×B)/100
wherein A: 100—(death rate when treatment was performed only with compound 261); and • B: 100—(death rate when treatment was performed only with each of flonicamid, acetamiprid, fipronil, imidacloprid)
(§3) When the pesticidal effect (Table 18) of the composition of the present invention in, an admixture form against Aphis gossypii exceeded the theoretical value calculated by the Colby's formula shown in Table 19, the admixture was determined to have a synergistic effect.

[2] = test system: Plutella xylostella; experiment: Test Example 3: pesticidal effect against Plutella xylostella, cabbage leaf disk, death rate of second-instar larvae and Colby theoretical value; conditions: other insecticide 0.156 ppm alone (compound 261 0 ppm)
Text: A leaf disk having a diameter of 5.0 cmφ was cut out from a cabbage grown in a pot and was placed in a plastic cup. Test admixture solutions, prepared by diluting the composition of the present invention with a 50% aqueous acetone solution (0.05% Tween 20 added) to predetermined concentrations specified in Table 22, test single active ingredient solutions in which only compound 261 had been dissolved without mixing other insecticides, or test single active ingredient solutions in which only other insecticides had been dissolved without mixing any pyripyropene derivative were spread over the cabbage leaf disk. The leaf disk was then air dried. Five larvae at the second instar born of Plutella xylostella were released in the cup. Thereafter, the cup was lidded and was allowed to stand in a humidistat chamber (light period 16 hr-dark period 8 hr) (25° C.). […] Death rate (%)={number of dead larvae/(number of survived larvae+number of dead larvae)}×100
Colby's formula: Theoretical value (%)=100−(A×B)/100 […]
When the pesticidal effect (Table 22) of the composition of the present invention in an admixture form against Plutella xylostella exceeded the theoretical value calculated by the Colby's formula shown in Table 23, the admixture was determined to have a synergistic effect.

[3] = test system: Aphis gossypii; experiment: Test Example 2: pesticidal effect against Aphis gossypii (Part 2), same test as Test Example 1 with other insecticides, death rate and Colby theoretical value; conditions: other insecticide 0.078 ppm alone (compound 261 0 ppm); for Theoretical value calculated by Colby's formula: Table 21; for Pesticidal effect against Aphis gossypii, death rate: cucumber leaf disk, 3 days
Text: as §1, §2, §3
The same test as in Test Example 1 was performed, except that the other insecticides were changed to those specified in Table 20.

Compound | Theoretical value calculated by Colby's formula [1] [%] | Death rate of Aphis gossypii by single active ingredient or admixture [1] [%] | Theoretical value calculated by Colby's formula [3] [%] | Pesticidal effect against Aphis gossypii, death rate [3] [%] | further results
C/C(=N\C#N)N(C)Cc1ccc(Cl)nc1 [acetamiprid] | 58 | 58 |  |  | 
CCOCn1c(-c2ccc(Cl)cc2)c(C#N)c(Br)c1C(F)(F)F [chlorfenapyr] |  |  |  |  | Theoretical value calculated by Colby's formula ([2]; Table 23): 0%; Pesticidal effect against Plutella xylostella, deathrate ([2]; cabbage leaf disk, second-instar larvae, 3 days): 0%
CN/C(=N\[N+](=O)[O-])NCc1cnc(Cl)s1 [clothianidin] |  |  | 79 | 79 | 
CN/C(=N/CC1CCOC1)N[N+](=O)[O-] (stereo not shown) [dinotefuran] |  |  | 40 | 40 | 
N#Cc1nn(-c2c(Cl)cc(C(F)(F)F)cc2Cl)c(N)c1[S+]([O-])C(F)(F)F (stereo not shown) [fipronil] | 0 | 0 |  |  | 
N#CCNC(=O)c1cnccc1C(F)(F)F [flonicamid] | 10 | 10 |  |  | 
O=[N+]([O-])NC1=NCCN1Cc1ccc(Cl)nc1 [imidacloprid] | 20 | 20 |  |  | 
CN1COCN(Cc2cnc(Cl)s2)/C1=N\[N+](=O)[O-] [thiamethoxam] |  |  | 65 | 65 | 
